Experimental data taken from PubChem BioAssay AID1963982 (Molecular Pharmacology Branch, DTP, NCI, 2024).
Several values for one entry are separate records, joined by “and”; a condition that tells them apart may be missing. Equal entries are not always repeated.

Tested on: 313798-341-R-J2-PDC spheroids, viability
Experiment: Anticancer human tumor 313798-341-R-J2-PDC patient-derived cervical squamous cell carcinoma cell line growth inhibition [PI3K]
Conditions: spheroids with HUVEC and MSC; for viability, T/C: stronger effect = lower value
How it was run: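 High-throughput combination screen: PI3K inhibitors crossed with targeted small molecules on complex spheroids of tumor cells, HUVEC and MSCs at 37 degrees C, 5% CO2. Top concentration was at or near clinical Cmax (otherwise 10 microM), with half-log decrements.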

[1] = curve of first compound, second compound 0.00316 µM
[2] = curve of first compound, second compound 0.01 µM
[3] = curve of first compound, second compound 0.0316 µM
[4] = curve of first compound, second compound 0.1 µM
[5] = curve of first compound, second compound 0.316 µM
[6] = curve of first compound, second compound 1 µM
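Also: spheroids exposed to compounds for seven days.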
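For viability, T/C in this document: 100% = DMSO vehicle control viability.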

Cn1cnc2c(F)c(Nc3ccc(Br)cc3Cl)c(C(=O)NOCCO)cc21 + CC(Nc1ccc2c(c1)OCCn1cc(N3C(=O)OCC3C(F)F)nc1-2)C(N)=O was tested, and the IC50 [1] was 1200 nM, the IC50 [2] was 841 nM and the IC50 [3] was 547 nM. It also gave an IC50 [4] of 265 nM, an IC50 [5] of 26.1 nM and an IC50 [6] of under 9.49 nM. For the same compound, the viability, T/C (second compound 0.00316 µM, first compound 0.00949 µM) was 87.2%, the viability, T/C (second compound 0.00316 µM, first compound 0.03 µM) was 107% and the viability, T/C (second compound 0.00316 µM, first compound 0.0949 µM) was 97.8%. It also gave a viability, T/C (second compound 0.00316 µM, first compound 0.3 µM) of 81.5%, a viability, T/C (second compound 0.00316 µM, first compound 0.949 µM) of 57.9% and a viability, T/C (second compound 0.00316 µM, first compound 3 µM) of 23.4%. The viability, T/C (second compound 0.01 µM, first compound 0.00949 µM) was 95.6%, the viability, T/C (second compound 0.01 µM, first compound 0.03 µM) was 103% and the viability, T/C (second compound 0.01 µM, first compound 0.0949 µM) was 96.1%. It also gave a viability, T/C (second compound 0.01 µM, first compound 0.3 µM) of 84.2%, a viability, T/C (second compound 0.01 µM, first compound 0.949 µM) of 46% and a viability, T/C (second compound 0.01 µM, first compound 3 µM) of 20.8%. The viability, T/C (second compound 0.0316 µM, first compound 0.00949 µM) was 97.6%, the viability, T/C (second compound 0.0316 µM, first compound 0.03 µM) was 92.8% and the viability, T/C (second compound 0.0316 µM, first compound 0.0949 µM) was 92.9%. The viability, T/C (second compound 0.0316 µM, first compound 0.3 µM) was 60.8%, the viability, T/C (second compound 0.0316 µM, first compound 0.949 µM) was 38.4% and the viability, T/C (second compound 0.0316 µM, first compound 3 µM) was 11.8%. For the same compound, the viability, T/C (second compound 0.1 µM, first compound 0.00949 µM) was 79.4%, the viability, T/C (second compound 0.1 µM, first compound 0.03 µM) was 69.9% and the viability, T/C (second compound 0.1 µM, first compound 0.0949 µM) was 66.2%. It also gave a viability, T/C (second compound 0.1 µM, first compound 0.3 µM) of 46%, a viability, T/C (second compound 0.1 µM, first compound 0.949 µM) of 29.9% and a viability, T/C (second compound 0.1 µM, first compound 3 µM) of 4.42%. For the same compound, the viability, T/C (second compound 0.316 µM, first compound 0.00949 µM) was 57.9%, the viability, T/C (second compound 0.316 µM, first compound 0.03 µM) was 46.5% and the viability, T/C (second compound 0.316 µM, first compound 0.0949 µM) was 41.3%. It also gave a viability, T/C (second compound 0.316 µM, first compound 0.3 µM) of 28.8%, a viability, T/C (second compound 0.316 µM, first compound 0.949 µM) of 16.7% and a viability, T/C (second compound 0.316 µM, first compound 3 µM) of 2.27%. It also gave a viability, T/C (second compound 1 µM, first compound 0.00949 µM) of 35.4%, a viability, T/C (second compound 1 µM, first compound 0.03 µM) of 34.2% and a viability, T/C (second compound 1 µM, first compound 0.0949 µM) of 30.1%. For the same compound, the viability, T/C (second compound 1 µM, first compound 0.3 µM) was 19.6%, the viability, T/C (second compound 1 µM, first compound 0.949 µM) was 9.79% and the viability, T/C (second compound 1 µM, first compound 3 µM) was 1.11%.
Cn1nccc1Nc1nccc(-c2ccn(C(CO)c3ccc(Cl)c(F)c3)c(=O)c2)n1 (stereo unspecified) was tested, and the viability, T/C (compound 0.0316 µM) was 98.7% and 101% (2×) and 96.5%, the viability, T/C (compound 0.1 µM) was 95.3% [middle of 4 runs] and the viability, T/C (compound 0.316 µM) was 98.6% [middle of 4 runs]. The viability, T/C (compound 1 µM) was 100% [middle of 4 runs], the viability, T/C (compound 3.16 µM) was 116% [middle of 4 runs] and the viability, T/C (compound 10 µM) was 96.9% and 104% (2×) and 105%. The IC50 (curve of compound) was over 10000 nM.
With CC(C)NCC(C(=O)N1CCN(c2ncnc3c2C(C)CC3O)CC1)c1ccc(Cl)cc1 (stereo unspecified) + CC(Nc1ccc2c(c1)OCCn1cc(N3C(=O)OCC3C(F)F)nc1-2)C(N)=O the IC50 [1] was 2250 nM, the IC50 [2] was 1850 nM and the IC50 [3] was 2380 nM. The IC50 [4] was 1910 nM, the IC50 [5] was 805 nM and the IC50 [6] was 74.9 nM. For the same compound, the viability, T/C (second compound 0.00316 µM, first compound 0.0316 µM) was 107%, the viability, T/C (second compound 0.00316 µM, first compound 0.1 µM) was 94.9% and the viability, T/C (second compound 0.00316 µM, first compound 0.316 µM) was 81%. For the same compound, the viability, T/C (second compound 0.00316 µM, first compound 1 µM) was 68.6%, the viability, T/C (second compound 0.00316 µM, first compound 3.16 µM) was 40.5% and the viability, T/C (second compound 0.00316 µM, first compound 10 µM) was 25.9%. It also gave a viability, T/C (second compound 0.01 µM, first compound 0.0316 µM) of 107%, a viability, T/C (second compound 0.01 µM, first compound 0.1 µM) of 103% and a viability, T/C (second compound 0.01 µM, first compound 0.316 µM) of 93.5%. For the same compound, the viability, T/C (second compound 0.01 µM, first compound 1 µM) was 61.1%, the viability, T/C (second compound 0.01 µM, first compound 3.16 µM) was 41.1% and the viability, T/C (second compound 0.01 µM, first compound 10 µM) was 30.2%. For the same compound, the viability, T/C (second compound 0.0316 µM, first compound 0.0316 µM) was 106%, the viability, T/C (second compound 0.0316 µM, first compound 0.1 µM) was 92.5% and the viability, T/C (second compound 0.0316 µM, first compound 0.316 µM) was 82.2%. The viability, T/C (second compound 0.0316 µM, first compound 1 µM) was 69.5%, the viability, T/C (second compound 0.0316 µM, first compound 3.16 µM) was 41.3% and the viability, T/C (second compound 0.0316 µM, first compound 10 µM) was 25.6%. For the same compound, the viability, T/C (second compound 0.1 µM, first compound 0.0316 µM) was 121%, the viability, T/C (second compound 0.1 µM, first compound 0.1 µM) was 99.6% and the viability, T/C (second compound 0.1 µM, first compound 0.316 µM) was 80.9%. It also gave a viability, T/C (second compound 0.1 µM, first compound 1 µM) of 62.5%, a viability, T/C (second compound 0.1 µM, first compound 3.16 µM) of 39.5% and a viability, T/C (second compound 0.1 µM, first compound 10 µM) of 27.2%. For the same compound, the viability, T/C (second compound 0.316 µM, first compound 0.0316 µM) was 84.6%, the viability, T/C (second compound 0.316 µM, first compound 0.1 µM) was 84.2% and the viability, T/C (second compound 0.316 µM, first compound 0.316 µM) was 62.3%. The viability, T/C (second compound 0.316 µM, first compound 1 µM) was 46.7%, the viability, T/C (second compound 0.316 µM, first compound 3.16 µM) was 35.4% and the viability, T/C (second compound 0.316 µM, first compound 10 µM) was 26%. The viability, T/C (second compound 1 µM, first compound 0.0316 µM) was 53%, the viability, T/C (second compound 1 µM, first compound 0.1 µM) was 50.2% and the viability, T/C (second compound 1 µM, first compound 0.316 µM) was 42.1%. The viability, T/C (second compound 1 µM, first compound 1 µM) was 38.2%, the viability, T/C (second compound 1 µM, first compound 3.16 µM) was 30.5% and the viability, T/C (second compound 1 µM, first compound 10 µM) was 25.5%.
